Results on 6 molecules are retold here after article PMC6874883 (Biochemistry, 2019).

As a reminder, the IC50 is the concentration that inhibits the measured activity by half. A lower IC50 goes with inhibition by little substance. By Ki is commonly meant the dissociation constant of the complex between target and ligand, obtained from inhibition or displacement. A word on the Kd: it is the constant that tells how readily two partners part at equilibrium. A word on the kcat: it is the maximal rate divided by the concentration of active sites.

For data set [1], the target named is T1, procaspase-6, Caspase-6 FL N-terminally (His)6 (Homo sapiens, UniProt P55212).
T1 sequence (P55212 1-293): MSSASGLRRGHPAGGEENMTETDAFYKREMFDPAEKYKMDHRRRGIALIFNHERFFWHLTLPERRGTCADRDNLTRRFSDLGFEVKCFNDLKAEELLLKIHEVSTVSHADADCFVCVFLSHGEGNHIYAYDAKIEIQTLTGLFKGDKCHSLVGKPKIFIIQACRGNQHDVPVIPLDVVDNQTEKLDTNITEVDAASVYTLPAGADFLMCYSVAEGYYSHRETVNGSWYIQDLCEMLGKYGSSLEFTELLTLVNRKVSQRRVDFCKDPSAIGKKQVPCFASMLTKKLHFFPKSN
The data set is described as follows: biochemical.

In the next data set the target is T2, procaspase-6 (Homo sapiens, UniProt P55212).
T2 sequence (P55212 1-293): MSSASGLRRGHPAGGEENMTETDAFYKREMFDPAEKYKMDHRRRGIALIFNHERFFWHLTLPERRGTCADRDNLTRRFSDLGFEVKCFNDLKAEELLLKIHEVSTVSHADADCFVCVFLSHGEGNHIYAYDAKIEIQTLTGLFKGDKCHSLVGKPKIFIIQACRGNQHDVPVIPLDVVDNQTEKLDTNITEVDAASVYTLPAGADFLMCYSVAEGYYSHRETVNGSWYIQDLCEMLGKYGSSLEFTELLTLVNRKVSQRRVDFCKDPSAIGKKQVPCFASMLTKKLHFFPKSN
Type of data set: binding.

The target in the next data set is T3, caspase-6 ΔN D179CT (Homo sapiens, UniProt P55212).
T3 sequence (P55212 24-179): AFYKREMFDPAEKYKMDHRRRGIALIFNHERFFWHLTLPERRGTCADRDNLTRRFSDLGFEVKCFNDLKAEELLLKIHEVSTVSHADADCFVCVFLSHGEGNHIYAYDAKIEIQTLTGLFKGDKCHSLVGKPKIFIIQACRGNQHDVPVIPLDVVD
T3 sequence (P55212 194-293): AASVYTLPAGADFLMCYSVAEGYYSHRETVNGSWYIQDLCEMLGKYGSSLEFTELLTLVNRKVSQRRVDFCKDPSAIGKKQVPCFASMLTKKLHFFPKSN
Kind of data set: Effect of ATP on the activity of cleaved, active caspase-6. It is filed as biochemical. The note with it: increasing ATP concentrations (0-40 mM), 1.5 h, 37 °C, 60 μM VEID-AMC.

Data set [2] concerns the target procaspase-6 (inactive C163S zymogen). As to conditions: SPR; cited from earlier work. On the technique in general: Surface plasmon resonance follows binding to a sensor surface in real time, without labels.
The target in a further data set is T4, procaspase-6 C163S (Homo sapiens, UniProt P55212, C163S).
T4 sequence (P55212 1-293 C163S): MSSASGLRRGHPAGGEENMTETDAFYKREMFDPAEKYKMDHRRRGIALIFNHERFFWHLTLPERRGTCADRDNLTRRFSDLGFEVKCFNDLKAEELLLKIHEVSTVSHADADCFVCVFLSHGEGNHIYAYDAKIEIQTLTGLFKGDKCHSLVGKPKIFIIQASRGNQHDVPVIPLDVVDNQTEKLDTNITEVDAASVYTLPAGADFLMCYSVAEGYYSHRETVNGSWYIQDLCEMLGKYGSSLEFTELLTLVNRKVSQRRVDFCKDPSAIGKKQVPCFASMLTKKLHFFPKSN
Kind of data set: ATPAc labeling of K133, C163S variant expressed in E. coli. It is filed as binding. The note with it: full-length zymogen; defined as 100%.

Another data set deals with T5, procaspase-6 Y198A (Homo sapiens, UniProt P55212, Y198A).
T5 sequence (P55212 24-179): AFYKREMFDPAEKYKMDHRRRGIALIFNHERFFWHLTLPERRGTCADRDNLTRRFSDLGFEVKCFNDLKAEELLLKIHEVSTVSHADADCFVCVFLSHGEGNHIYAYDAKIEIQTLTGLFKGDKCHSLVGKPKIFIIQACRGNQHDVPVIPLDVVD
T5 sequence (P55212 194-293 Y198A): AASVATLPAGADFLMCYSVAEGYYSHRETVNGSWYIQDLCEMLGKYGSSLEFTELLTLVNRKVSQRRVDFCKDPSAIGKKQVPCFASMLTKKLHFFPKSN
Kind of data set: ATPAc labeling of K133, Y198A variant expressed in E. coli. It is filed as binding. The note with it: zymogen processed to mature Y198A caspase-6; relative to C163S = 100%.

The next data set deals with T6, procaspase-6 Y198A/C163S (Homo sapiens, UniProt P55212, C163S/Y198A).
T6 sequence (P55212 1-293 C163S/Y198A): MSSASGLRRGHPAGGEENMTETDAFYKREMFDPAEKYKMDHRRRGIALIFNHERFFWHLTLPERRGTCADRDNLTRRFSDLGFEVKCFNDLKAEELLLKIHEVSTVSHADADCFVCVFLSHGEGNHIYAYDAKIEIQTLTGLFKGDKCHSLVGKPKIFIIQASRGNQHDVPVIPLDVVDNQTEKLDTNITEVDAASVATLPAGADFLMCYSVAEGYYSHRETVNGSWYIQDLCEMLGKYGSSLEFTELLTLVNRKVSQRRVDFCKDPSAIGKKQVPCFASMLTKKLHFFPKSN
Kind of data set: ATPAc labeling of K133, Y198A/C163S variant expressed in E. coli. Type of data set: binding. As to conditions: full-length procaspase-6; relative to C163S = 100%.

Another data set has as its target T7, caspase-6 (Homo sapiens, UniProt P55212).
T7 sequence (P55212 24-179): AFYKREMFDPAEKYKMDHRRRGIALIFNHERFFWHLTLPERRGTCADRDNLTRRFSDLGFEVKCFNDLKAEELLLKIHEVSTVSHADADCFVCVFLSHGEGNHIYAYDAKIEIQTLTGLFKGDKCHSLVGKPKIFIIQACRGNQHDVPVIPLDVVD
T7 sequence (P55212 194-293): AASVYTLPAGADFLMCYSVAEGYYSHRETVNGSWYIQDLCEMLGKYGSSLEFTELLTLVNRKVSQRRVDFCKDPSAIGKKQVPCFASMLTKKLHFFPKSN
The data set is described as follows: Caspase activity assay, kinetic parameters with VEID-AMC substrate. Type of data set: biochemical. The note with it: 100 nM enzyme, VEID-AMC 0-500 μM, 37 °C.

Values joined by “and” are separate entries in the source; they are usually repeats but may differ in a detail not shown here. Identical values can stand only once.

In the case of `Nc1ncnc2c1ncn2[C@@H]1O[C@H](COP(=O)(O)OP(=O)(O)OP(=O)(O)O)[C@@H](O)[C@H]1O` [ATP, adenosine triphosphate], the IC50 in data set [1] is 19000 ± 800 µM; on procaspase-6, 1000 to 3000 µM. The molecule also registered an inhibition constant Ki at procaspase-6 of approximately 2000 µM. For the same molecule, the “activity of mature caspase-6” value at caspase-6 ΔN D179CT is recorded as “not affected”.
`Nc1nc2c(ncn2[C@@H]2O[C@H](COP(=O)(O)OP(=O)(O)OP(=O)(O)O)[C@@H](O)[C@H]2O)c(=O)[nH]1` [GTP, guanosine triphosphate]: the “inhibition of K133 acylation by acyl phosphate probes” value at procaspase-6 (resting Jurkat lysates pretreated 15 min with nucleotide (5 mM)) is recorded as “inhibited”.
Regarding `Nc1cc2ccccc2c(O)n1` [compound 3, 3-aminoisoquinolin-1-ol], the IC50 on procaspase-6 is more than 1000 µM. Moreover, the Kd in data set [2] was 1.8 µM and ~1.8 µM.
With `Nc1ncnc2c1ncn2[C@H]1C[C@H](O)[C@@H](COP(=O)(O)OP(=O)(O)OP(=O)(O)O)O1` [dATP], the “inhibition of probe acylation (immunoblot)” value against procaspase-6 (immunoblot experiment, at ≤100 mM) is “no significant inhibition”.
Regarding “desthiobiotin acyl phosphate of ATP [ATPAc]”, the figures for the “acylation of K133” value at procaspase-6 C163S, on procaspase-6 Y198A and on procaspase-6 Y198A/C163S were 100%, 1.9% and 1.7%, respectively.

B1: Y198A: mature active caspase-6 Y198A variant, recombinant, expressed in E. coli (protein, UniProt P55212 1-293, looked up, variant Y198A)
chain: MSSASGLRRGHPAGGEENMTETDAFYKREMFDPAEKYKMDHRRRGIALIFNHERFFWHLTLPERRGTCADRDNLTRRFSDLGFEVKCFNDLKAEELLLKIHEVSTVSHADADCFVCVFLSHGEGNHIYAYDAKIEIQTLTGLFKGDKCHSLVGKPKIFIIQACRGNQHDVPVIPLDVVDNQTEKLDTNITEVDAASVATLPAGADFLMCYSVAEGYYSHRETVNGSWYIQDLCEMLGKYGSSLEFTELLTLVNRKVSQRRVDFCKDPSAIGKKQVPCFASMLTKKLHFFPKSN
For the molecule B1, in the data set with caspase-6, the kcat was found to be 2.84 ± 0.04 s⁻¹.
